Patent EP1174421A1, “3-AMIDINOBENZENESULFONAMIDE DERIVATIVES, MEDICINAL COMPOSITIONS CONTAINING THE SAME AND INT[…] THE PRODUCTION THEREOF” (Kissei Pharmaceutical Co., Ltd., priority 1999, dated 2000)
Where a name gives a salt, the structure may show the parent alone. Read-outs that look alike come from different tables or passages of the source.

What was measured:
[1] = biological target: T1, human activated blood coagulation factor X (Homo sapiens, UniProt P00742); assay: Measurement of inhibitory activity for activated blood coagulation factor X (S-2222 chromogenic substrate); format: biochemical
T1 construct: purchased Calbiochem Corporation
T1 sequence (P00742 235-488 limits assumed): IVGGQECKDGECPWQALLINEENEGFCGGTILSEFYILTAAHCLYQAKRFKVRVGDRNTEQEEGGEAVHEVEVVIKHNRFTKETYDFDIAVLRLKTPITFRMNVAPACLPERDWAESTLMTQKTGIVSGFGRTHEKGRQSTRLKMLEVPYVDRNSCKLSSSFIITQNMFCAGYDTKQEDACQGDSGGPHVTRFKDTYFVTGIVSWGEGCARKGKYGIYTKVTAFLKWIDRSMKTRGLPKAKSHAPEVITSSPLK
T1 sequence (P00742 41-179 partner limits assumed): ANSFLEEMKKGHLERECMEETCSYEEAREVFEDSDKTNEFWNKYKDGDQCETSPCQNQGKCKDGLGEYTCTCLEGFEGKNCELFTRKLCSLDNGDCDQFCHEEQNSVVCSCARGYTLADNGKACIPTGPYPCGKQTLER
Experimental: (§1) Five µL of dimethylsulfoxide solution of test compound, 375 µL of tris-hydrochloric acid buffer (pH 8.4) and 100 µL of 1 mM S-2222 (Daiichi Pure Chemicals) aqueous solution were mixed. Then 20 µL of 0.6 U/mL human activated blood coagulation factor X (Calbiochem Corporation) in gelatin-glycine buffer was added and the mixture was incubated for 10 minutes at 37 °C. The reaction was terminated with the addition of 100 µL of 60 % acetic acid and absorbance (405 nm) was measured.
The group without test compound was defined as control and the group without human activated blood coagulation factor X was defined as blank.

human thrombin = biological target: T2, human thrombin (Homo sapiens, UniProt P00734); assay: Measurement of inhibitory activity for thrombin (S-2238 chromogenic substrate); format: biochemical
T2 construct: human thrombin (Sigma Chemical Company); purchased Sigma Chemical Company
Experimental: as §1, with “S-2238” for “S-2222”, “2.0” for “0.6”, “thrombin (Sigma Chemical Company)” for “activated blood coagulation factor X (Calbiochem Corporation)”
The group without test compound was defined as control and the group without human thrombin was defined as blank. […]

normal human plasma = assay: Measurement of anticoagulation effects (plasma prothrombin time); format: biochemical; conditions: CT2: concentration that prolonged the clotting time (prothrombin time) of control by 2 times
Experimental: Two µL of dimethylsulfoxide solution of test compound which was put in the process tube was incubated at 37 °C, and 50 µL of normal human plasma (George King Bio-Medical Inc.) was mixed. One minute later, 100 µL of plasma prothrombin time reagent (Neoplastin Plus® , Boehringer Mannheim) was added into the mixture. Prothrombin time was measured with ST4 (Boehringer Mannheim).
The group without test compound was defined as control. The concentration of test compound that prolonged the clotting time of control by 2 times (CT2) was obtained and this value was used as the index of anticoagulation activity.

Male Wistar rats = assay: Acute toxicity test; format: in vivo; conditions: 30 mg/kg, through tail vein (intravenous), groups of 5 rats, survival judged for 24 hours
Experimental: Male Wistar rats aged 7 weeks (SLC) were divided into several groups consisting of 5 rats. Test compound was dissolved at the concentration that became the administration volume of
2.5 mL/kg. The solution was administered through tail vein at an infusion rate of 1 mL/minute. Observations were performed at constant intervals, and survival rate was judged for 24 hours.

| IC50 ([1]; IC50, pH 8.4, 10 minutes at 37 °C, absorbance 405 nm, read-out: Inhibitory activity for activated blood coagulation factor X) [nM] | IC50 (human thrombin; IC50, pH 8.4, 10 minutes at 37 °C, absorbance 405 nm, read-out: Inhibitory activity for thrombin) [nM] | Structure (SMILES) | IC50 [1] [nM] | IC50 (human thrombin) [nM] | Anticoagulation effect (normal human plasma) [µM] | Death cases (Male Wistar rats) | Death cases (Male Wistar rats; listed as 5-amidino-2-hydroxy-N-[2-[4-[1-(1-iminoethyl)piperidin-4-yl]phenyl]ethyl]benzene) |
| --- | --- | --- | --- | --- | --- | --- | --- |
| 64 | 101000 | CC(C)c1ccc(CCNS(=O)(=O)c2cc(C(=N)N)ccc2O)cc1 [Compound 2, 5-Amidino-N-[2-(4-isopropylphenyl)ethyl]-2-hydroxybenzene-sulfonamide hydrochloride] | – | – | – | – | – |
| – | – | CC(=N)N1CCC(c2ccc(CCNS(=O)(=O)c3cc(C(=N)N)ccc3O)cc2)CC1 [Compound 8, 5-Amidino-2-hydroxy-N-[2-[4-[1-(1-iminoethyl)piperidin-4-yl]phenyl]ethyl]benzenesulfonamide dihydorchloride] | 87 | > 100000 | 0.21 | 0/5 | no death was observed |
| – | – | CC(=N)N1CC[C@H](Oc2ccc(CCNS(=O)(=O)c3cc(C(=N)N)ccc3O)cc2)C1 [Compound 9, (S)-5-Amidino-2-hydroxy-N-[2-[4-[1-(1-iminoethyl)pyrrolidin-3-yloxylphenyl]ethyl]benzenesulfonamidedihydrochloride] | 88 | > 100000 | 0.18 | – | – |
| – | – | CC(=N)N1CCC(Oc2ccc(CCNS(=O)(=O)c3cc(C(=N)N)ccc3O)cc2)CC1 [Compound 10, 5-Amidino-2-hvdroxv-N-[2-[4-[1-(1-iminoethyl)piperidin-4-yloxy]phenyl]ethyl]benzenesulfonamide dihydrochloride] | 110 | > 100000 | 0.22 | – | – |
